Patent US20080194574A1, “Pyrazine Derivatives As Effective Compounds Against Infectious Diseases” (AXXIMA PHARMACEUTICALS AG, priority 2003, published 2008)
Like-named read-outs stand apart in the source and are kept apart here.

Target: T1, viral kinase pUL-97 (Human cytomegalovirus, UniProt P16788)
T1 construct: The pUL-97 gene was cloned into a baculovirus vector; GST (glutathione S-transferase) (N); made in house; host or cells: Sf9 insect cells, baculovirus
Test: UL97 kinase assay on Immobilon plate
Assay type: biochemical
Details: inhibition of UL 97 kinase activity, read-out: Activity Class [A, B, C]
In short: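 GST-pUL97 from baculovirus-infected Sf9 cells phosphorylated myelin basic protein with ATP (3 μM in the added assay buffer) and γ-[33P]ATP in Tris-HCl pH 7.5 buffer with MnCl2 and DTT. Reaction ran 1 h at 30 °C with graded compound concentrations and was stopped with EDTA. 33P incorporation was measured by scintillation after filter capture and phosphoric acid washes.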

[1] = class by IC50 / % inhibition at 10 μM or 100 μM
[2] = class by IC50 / % inhibition at 10 or 100 μM

T1 sequence (P16788 whole entry): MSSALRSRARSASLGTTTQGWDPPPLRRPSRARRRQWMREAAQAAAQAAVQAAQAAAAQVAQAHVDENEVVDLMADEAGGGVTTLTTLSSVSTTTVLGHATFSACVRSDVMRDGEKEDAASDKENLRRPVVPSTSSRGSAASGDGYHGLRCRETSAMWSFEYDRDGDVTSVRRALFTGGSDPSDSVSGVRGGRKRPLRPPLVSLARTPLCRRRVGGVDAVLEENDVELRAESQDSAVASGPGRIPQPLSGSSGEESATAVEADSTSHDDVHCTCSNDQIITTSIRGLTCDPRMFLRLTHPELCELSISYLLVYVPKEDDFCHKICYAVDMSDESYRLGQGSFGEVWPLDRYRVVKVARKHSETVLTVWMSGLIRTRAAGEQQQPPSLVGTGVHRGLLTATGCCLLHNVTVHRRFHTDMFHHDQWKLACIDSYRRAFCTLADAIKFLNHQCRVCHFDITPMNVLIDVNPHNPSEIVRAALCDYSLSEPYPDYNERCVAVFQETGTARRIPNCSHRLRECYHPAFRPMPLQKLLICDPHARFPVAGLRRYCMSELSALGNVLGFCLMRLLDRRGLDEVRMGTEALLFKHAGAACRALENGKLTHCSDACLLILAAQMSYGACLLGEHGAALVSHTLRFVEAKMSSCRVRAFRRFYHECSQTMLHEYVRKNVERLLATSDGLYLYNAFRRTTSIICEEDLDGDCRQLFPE

| Structure (SMILES) | IC50 [1] | IC50 [2] |
| --- | --- | --- |
| c1ccc2c(-c3cncc(N4CCN(c5ccncc5)CC4)n3)cccc2c1 [compound 221, 6′-Naphthalen-1-yl-4-pyridin-4-yl-3,4,5,6-tetrahydro-2H-[1,2′]bipyrazinyl] | 1 to 10 µM |  |
| Cc1cccc(N2CCN(c3cncc(-c4csc5ccccc45)n3)CC2C)c1 (stereo not shown) [compound 279, 6′-Benzo[b]thiophen-3-yl-3-methyl-4-m-tolyl-3,4,5,6-tetrahydro-2H-[1,2′]bipyrazinyl] | 10 to 100 µM |  |
| CCOc1ccc(-c2cncc(N3CCN(c4ccccc4)CC3)n2)cc1 [compound 121, 6′-(4-Ethoxy-phenyl)-4-phenyl-3,4,5,6-tetrahydro-2H-[1,2′]bipyrazinyl] |  | 1 to 10 µM |
| Fc1ccccc1N1CCN(c2cncc(-c3ccc(C(F)(F)F)cc3)n2)CC1 [compound 197, 4-(2-Fluoro-phenyl)-6′-(4-trifluoromethyl-phenyl)-3,4,5,6-tetrahydro-2H-[1,2′]bipyrazinyl] | 1 to 10 µM |  |
| c1cc(N2CCN(c3cncc(-c4ccsc4)n3)CC2)ccn1 [compound 79, 4-Pyridin-4-yl-6′-thiophen-3-yl-3,4,5,6-tetrahydro-2H-[1,2′]bipyrazinyl] |  | 1 to 10 µM |
| CC(=O)c1ccc(-c2cncc(N3CCN(c4ccc(F)cc4F)CC3)n2)cc1 [compound 275, 1-{4-[4-(2,4-Difluoro-phenyl)-3,4,5,6-tetrahydro-2H-[1,2′]bipyrazinyl-6′-yl]-phenyl}-ethanone] | 1 to 10 µM |  |
| Cc1cccc(-c2cncc(N3CCN(c4cccc(C(F)(F)F)c4)CC3)n2)c1C [compound 156, 6′-(2,3-Dimethyl-phenyl)-4-(3-trifluoromethyl-phenyl)-3,4,5,6-tetrahydro-2H-[1,2′]bipyrazinyl] |  | 10 to 100 µM |
| Fc1ccc(N2CCN(c3cncc(-c4ccc(-c5ccccc5)c(F)c4)n3)CC2)cc1 [compound 268, 6′-(2-Fluoro-biphenyl-4-yl)-4-(4-fluoro-phenyl)-3,4,5,6-tetrahydro-2H-[1,2′]bipyrazinyl] | 10 to 100 µM |  |
| Cc1ccc(-c2cncc(NCc3ccco3)n2)cc1C [compound 51, [6-(3,4-Dimethyl-phenyl)-pyrazin-2-yl]-furan-2-ylmethyl-amine] |  | 10 to 100 µM |
| CCOc1ccc(-c2cncc(N3CCN(c4ccc(F)cc4)CC3)n2)cc1 [compound 271, 6′-(4-Ethoxy-phenyl)-4-(4-fluoro-phenyl)-3,4,5,6-tetrahydro-2H-[1,2′]bipyrazinyl] | 10 to 100 µM |  |
| FC(F)(F)c1cccc(N2CCN(c3cncc(-c4csc5ccccc45)n3)CC2)c1 [compound 158, 6′-Benzo[b]thiophen-3-yl-4-(3-trifluoromethyl-phenyl)-3,4,5,6-tetrahydro-2H-[1,2′]bipyrazinyl] |  | 10 to 100 µM |
| COc1ccc(-c2cncc(N3CCC(c4ccccc4)CC3)n2)cc1F [compound 278, 2-(3-Fluoro-4-methoxy-phenyl)-6-(4-phenyl-piperidin-1-yl)-pyrazine] | 10 to 100 µM |  |
| FC(F)(F)c1cc(-c2cncc(N3CCN(c4ccccc4)CC3)n2)cc(C(F)(F)F)c1 [compound 191, 6′-(3,5-Bis-trifluoromethyl-phenyl)-4-phenyl-3,4,5,6-tetrahydro-2H-[1,2′]bipyrazinyl] |  | 10 to 100 µM |
| Fc1cc(-c2cncc(N3CCN(c4ccccc4)CC3)n2)ccc1-c1ccccc1 [compound 96, 6′-(2-Fluoro-biphenyl-4-yl)-4-phenyl-3,4,5,6-tetrahydro-2H-[1,2′]bipyrazinyl] |  | 10 to 100 µM |
| COc1ccccc1N1CCN(c2cncc(-c3csc4ccccc34)n2)CC1 [compound 243, 6′-Benzo[b]thiophen-3-yl-4-(2-methoxy-phenyl)-3,4,5,6-tetrahydro-2H-[1,2′]bipyrazinyl] | 10 to 100 µM |  |
| COc1cccc(-c2cncc(N3CCN(c4ccccc4)CC3)n2)c1 [compound 110, 6′-(3-Methoxy-phenyl)-4-phenyl-3,4,5,6-tetrahydro-2H-[1,2′]bipyrazinyl] |  | 1 to 10 µM |
| CN(C)c1ccc(-c2cncc(N3CCN(c4cccc(C(F)(F)F)c4)CC3)n2)cc1 [compound 216, Dimethyl-{4-[4-(3-trifluoromethyl-phenyl)-3,4,5,6-tetrahydro-2H-[1,2′]bipyrazinyl-6′-yl]-phenyl}-amine] | 10 to 100 µM |  |
| Clc1ccc(N2CCN(c3cncc(-c4csc5ccccc45)n3)CC2)cc1 [compound 326, 6′-Benzo[b]thiophen-3-yl-4-(4-chloro-phenyl)-3,4,5,6-tetrahydro-2H-[1,2′]bipyrazinyl] | 1 to 10 µM |  |
| Cc1cc(C)cc(-c2cncc(N3CCN(c4ccc(F)cc4F)CC3)n2)c1 [compound 209, 4-(2,4-Difluoro-phenyl)-6′-(3,5-dimethyl-phenyl)-3,4,5,6-tetrahydro-2H-[1,2′]bipyrazinyl] | 10 to 100 µM |  |
| CN(C)c1ccc(-c2cncc(N3CCN(c4ccc(Cl)c(Cl)c4)CC3)n2)cc1 [compound 357, {4-[4-(3,4-Dichloro-phenyl)-3,4,5,6-tetrahydro-2H-[1,2′]bipyrazinyl-6′-yl]-phenyl}-dimethyl-amine] | 10 to 100 µM |  |

| Structure (SMILES) | IC50 [1] | IC50 [2] |
| --- | --- | --- |
| Cc1cccc(N2CCN(c3cncc(-c4ccc5ccccc5c4)n3)CC2C)c1 (stereo not shown) [compound 347, 3-Methyl-6′-naphthalen-2-yl-4-m-tolyl-3,4,5,6-tetrahydro-2H-[1,2′]bipyrazinyl] | 10 to 100 µM |  |
| COc1ccccc1N1CCN(c2cncc(-c3ccsc3)n2)CC1 [compound 85, 4-(2-Methoxy-phenyl)-6′-thiophen-3-yl-3,4,5,6-tetrahydro-2H-[1,2′]bipyrazinyl] |  | 10 to 100 µM |
| COc1cccc(-c2cncc(N3CCN(c4ccncc4)CC3)n2)c1 [compound 78, 6′-(3-Methoxy-phenyl)-4-pyridin-4-yl-3,4,5,6-tetrahydro-2H-[1,2′]bipyrazinyl] |  | 1 to 10 µM |
| COc1cccc(N2CCN(c3cncc(-c4ccc(C(N)=O)cc4)n3)CC2)c1 [compound 364, 4-[4-(3-Methoxy-phenyl)-3,4,5,6-tetrahydro-2H-[1,2′]bipyrazinyl-6′-yl]-benzamide] | 1 to 10 µM |  |
| c1ccc(N2CCN(c3cncc(-c4csc5ccccc45)n3)CC2)cc1 [compound 247, 6′-Benzo[b]thiophen-3-yl-4-phenyl-3,4,5,6-tetrahydro-2H-[1,2′]bipyrazinyl] | 1 to 10 µM |  |
| COc1ccc(N2CCN(c3cncc(-c4ccc(C(C)(C)C)cc4)n3)CC2)cc1OC [compound 263, 6′-(4-tert-Butyl-phenyl)-4-(3,4-dimethoxy-phenyl)-3,4,5,6-tetrahydro-2H-[1,2′]bipyrazinyl] | 10 to 100 µM |  |
| Fc1ccc(-c2cncc(N3CCN(c4cccc(C(F)(F)F)c4)CC3)n2)cc1Cl [compound 157, 6′-(3-Chloro-4-fluoro-phenyl)-4-(3-trifluoromethyl-phenyl)-3,4,5,6-tetrahydro-2H-[1,2′]bipyrazinyl] |  | 10 to 100 µM |
| CC(=O)c1ccc(N2CCN(c3cncc(-c4cccc(C)c4)n3)CC2)cc1 [compound 147, 1-[4-(6′-m-Tolyl-2,3,5,6-tetrahydro-[1,2′]bipyrazinyl-4-yl)-phenyl]-ethanone] |  | 10 to 100 µM |
| COc1ccc(-c2cncc(N3CCN(c4ccc(Cl)c(Cl)c4)CC3)n2)cc1OC [compound 371, 4-(3,4-Dichloro-phenyl)-6′-(3,4-dimethoxy-phenyl)-3,4,5,6-tetrahydro-2H-[1,2′]bipyrazinyl] | 10 to 100 µM |  |
| Cc1ccc(N2CCN(c3cncc(-c4ccc(N(C)C)cc4)n3)CC2)cc1 [compound 176, Dimethyl-[4-(4-p-tolyl-3,4,5,6-tetrahydro-2H-[1,2′]bipyrazinyl-6′-yl)-phenyl]-amine] |  | 10 to 100 µM |
| CN(C)c1ccc(-c2cncc(N3CCN(c4ccc(Cl)cc4)CC3)n2)cc1 [compound 340, {4-[4-(4-Chloro-phenyl)-3,4,5,6-tetrahydro-2H-[1,2′]bipyrazinyl-6′-yl]-phenyl}-dimethyl-amine] | 10 to 100 µM |  |
| COc1ccc(N2CCN(c3cncc(-c4ccc(Oc5ccccc5)cc4)n3)CC2)cc1OC [compound 168, 4-(3,4-Dimethoxy-phenyl)-6′-(4-phenoxy-phenyl)-3,4,5-6-tetrahydro-2H-[1,2′]bipyrazinyl] |  | 10 to 100 µM |
| CSc1ccc(-c2cncc(N3CCN(c4ccc(F)cc4)CC3)n2)cc1 [compound 140, 4-(4-Fluoro-phenyl)-6′-(4-methylsulfanyl-phenyl)-3,4,5,6-tetrahydro-2H-[1,2′]bipyrazinyl] |  | 1 to 10 µM |
| CC(=O)c1cccc(-c2cncc(N3CCN(c4ccncc4)CC3)n2)c1 [compound 132, 1-[3-(4-Pyridin-4-yl-3,4,5,6-tetrahydro-2H-[1,2′]bipyrazinyl-6′-yl)-phenyl]-ethanone] |  | 1 to 10 µM |
| CC(=O)c1ccc(-c2cncc(N3CCN(c4ccccc4F)CC3)n2)cc1 [compound 130, 1-{4-[4-(2-Fluoro-phenyl)-3,4,5,6-tetrahydro-2H-[1,2′]bipyrazinyl-6′-yl]-phenyl}-ethanone] |  | 1 to 10 µM |
| Cc1ccc(N2CCN(c3cncc(-c4ccc(F)c(Cl)c4)n3)CC2)cc1C [compound 316, 6′-(3-Chloro-4-fluoro-phenyl)-4-(3,4-dimethyl-phenyl)-3,4,5,6-tetrahydro-2H-[1,2′]bipyrazinyl] | 10 to 100 µM |  |
| Cc1cccc(-c2cncc(N3CCN(c4ccncc4)CC3)n2)c1 [compound 219, 4-Pyridin-4-yl-6′-m-tolyl-3,4,5,6-tetrahydro-2H-[1,2′]bipyrazinyl] | 1 to 10 µM |  |
| COc1ccc(-c2cncc(N3CCN(c4cccc5[nH]ccc45)CC3)n2)cc1 [compound 38, 4-(1H-Indol-4-yl)-6′-(4-methoxy-phenyl)-3,4,5,6-tetrahydro-2H-[1,2′]bipyrazinyl] |  | 1 to 10 µM |
| COc1ccc(-c2cncc(N3CCN(c4ccc(C)cc4C)CC3)n2)cc1OC [compound 288] | 10 to 100 µM |  |
| COc1cccc(N2CCN(c3cncc(-c4cccc(C(C)=O)c4)n3)CC2)c1 [compound 368, 1-{3-[4-(3-Methoxy-phenyl)-3,4,5,6-tetrahydro-2H-[1,2′]bipyrazinyl-6′-yl]-phenyl}-ethanone] | 1 to 10 µM |  |
